According to US7829567B2, “Imino-indeno[1,2-c] quinoline derivatives, their preparation processes, and pharmaceutical compositions comprising the same” (Kaohsiung Medical University, priority 2007, dated 2010):
Counter-ions that a name gives are not always drawn. Like-named read-outs stand apart in the source and are kept apart here.

Legend:
[1] = system: human cervical epithelioid carcinoma (HeLa); experiment: In vitro anticancer assay (MTT), HeLa; format: cell-based; conditions: HeLa cells, 48 hrs, mean ± spread, read-out: Anti-proliferative evaluation IC50, HeLa
Description: (§1) The resultant tetrazolium salt was then dissolved by the addition of dimethyl sulfoxide. Color was measured spectrophotometrically in a microtiter plate reader at 570 nm and used as a relative measure of viable cell number. The number of viable cells after treatment was compared to solvent and untreated control cells and used to determine the percent of control growth as (Abtreated/Abcontrol)×100, where Ab represents the mean absorbance (n=3). […] D. Heo et al. […] (+)-camptothecin (CPT) and doxorubicin hydrochloride (Dox) were used for comparison with the compounds according to this invention.

[2] = system: human stomach adenocarcinoma (AGS); experiment: In vitro anticancer assay (MTT), AGS; format: cell-based; conditions: AGS cells, 48 hrs, mean ± spread, read-out: Anti-proliferative evaluation IC50, AGS
Description: as §1

[3] = system: oral squamous cell carcinoma (SAS); experiment: In vitro anticancer assay (MTT), SAS; format: cell-based; conditions: SAS cells, 48 hrs, mean ± spread, read-out: Anti-proliferative evaluation IC50, SAS
Description: as §1

[4] = system: hepatocellular carcinoma (SKHep1); experiment: In vitro anticancer assay (MTT), SKHep1; format: cell-based; conditions: 48 hrs, mean ± spread, read-out: Anti-proliferative evaluation IC50, SKHep1
Description: as §1

[5] = system: esophageal carcinoma (CE81T); experiment: In vitro anticancer assay (MTT), CE81T; format: cell-based; conditions: CE81T cells, 48 hrs, mean ± spread, read-out: Anti-proliferative evaluation IC50, CE81T
Description: as §1

[6] = system: human renal clear cell carcinoma; experiment: In vitro anticancer assay (MTT), RCC 768-O; format: cell-based; conditions: RCC 768-O cells, 48 hrs, mean ± spread, read-out: Anti-proliferative evaluation IC50, RCC 768-O
Description: as §1

cancer cells = experiment: In vitro anticancer assay, summary over the six cancer cells; format: cell-based; conditions: summary of Table 2
Description: Six cancer cells, i.e., cells of human cervical epithelioid carcinoma (HeLa), hepatocellular carcinoma (SKHep1), oral squamous cell carcinoma (SAS), human stomach adenocarcinoma (AGS), human renal clear cell carcinoma (RCC 768-O) and esophageal carcinoma (CE81T), were treated with the selected compounds as indicated for 48 hrs in a medium containing 10% FBS (3-[4,5-Dimethylthiazol-2-yl]-2,5-diphenyltetrazolium bromide (MTT, 2 mg/mL, […]) was added to the cultures and incubated during the final 1.5 hrs. The resultant tetrazolium salt was then dissolved by the addition of dimethyl sulfoxide. Color was measured spectrophotometrically in a microtiter plate reader at 570 nm and used as a relative measure of viable cell number. The number of viable cells after treatment was compared to solvent and untreated control cells and used to determine the percent of control growth as (Abtreated/Abcontrol)×100, where Ab represents the mean absorbance (n=3). The concentration that killed 50% of cells (IC50) was determined from the linear portion of the curve by calculating the concentration of agent that reduced absorbance in treated cells, as compared to control cells, by 50% (S. D. Heo et al. (1990), Cancer Res., 50:3681-3690). (+)-camptothecin (CPT) and doxorubicin hydrochloride (Dox) were used for comparison with the compounds according to this invention.

[7] = Homo sapiens, SK-HEP1, SKHep1 cells

COc1ccc2c(c1)C(=O)c1c-2c(O)nc2ccccc12 [Compound 5e, 6-Hydroxy-9-methoxy-11H-indeno[1,2-c]quinolin-11-one]
melting point: 316 to 317 °C

COc1ccc2c(c1)C(=O)c1c-2c(Nc2ccc(C(C)=O)cc2)nc2ccccc12 [Compound 5s, 6-(4-Acetylphenylamino)-9-methoxy-11H-indeno[1,2-c]quinolin-11-one]
IC50 ([1]; Homo sapiens): 7.2 ± 0.9 µM
IC50 ([2]; Homo sapiens): 5.9 ± 1.4 µM
IC50 [3]: 6.5 ± 0.9 µM
IC50 [4, 7]: 7.4 ± 2.1 µM
melting point: 251 to 252 °C
IC50 [5]: 6.8 ± 1.2 µM
IC50 ([6]; Homo sapiens): 9.1 ± 1.5 µM

CON=C1c2ccccc2-c2c(N3CCNCC3)nc3ccccc3c21 (as salt: salt) [Compound 6j, 6-(Piperazin-1-yl)-11H-indeno[1,2-c]quinolin-11-one O-methyl oxime]
melting point: 149 to 150 °C

CN(C)CCNc1nc2ccccc2c2c1-c1ccccc1C2=O [Compound 5a, 6-(2-(Dimethylamino)ethylamino)-11H-indeno[1,2-c]quinolin-11-one]
IC50 ([1]; Homo sapiens): 2.4 ± 1.2 µM
IC50 ([2]; Homo sapiens): 7.9 ± 1.5 µM
IC50 [3]: 6.6 ± 0.9 µM
IC50 [4, 7]: 3.8 ± 1.8 µM
melting point: 148 to 149 °C
IC50 [5]: 4.1 ± 3.3 µM
IC50 ([6]; Homo sapiens): 7.1 ± 0.6 µM

COc1ccc2c(c1)C(=NO)c1c-2cnc2ccccc12 [Compound 6a, 9-Methoxy-11H-indeno[1,2-c]quinolin-11-one oxime]
melting point: 270 to 271 °C

COc1ccc2c(c1)C(=O)c1c-2cnc2ccccc12 [Compound 5d, 9-Methoxy-11H-indeno[1,2-c]quinolin-11-one]
melting point: 195 to 196 °C

COc1ccc2c(c1)C(=O)c1c-2c(N2CCN(C(=O)CCCl)CC2)nc2ccccc12 [Compound 5hh, 6-[4-(3-Chloropropanoyl)piperazin-1-yl]-9-methoxy-11H-indeno[1,2-c]quinolin-11-one]
melting point: 162 to 163 °C

COc1cccc2c1C(=O)c1c-2c(N2CCNCC2)nc2ccccc12 [Compound 5bb]
IC50 [1]: 0.4 ± 0.1 µM
IC50 [2]: 4.1 ± 1.2 µM
IC50 [3]: 5.1 ± 0.8 µM
IC50 ([4]; SKHep1 cells): 0.7 ± 0.3 µM
IC50 [5]: 4.9 ± 1.5 µM
IC50 [6]: 1.7 ± 0.5 µM
anticancer activity (in words) (cancer cells): broad and potent anticancer activity

COc1ccc2c(c1)C(=O)c1c-2c(N2CCNCC2)nc2ccccc12 [Compound 5x, 9-Methoxy-6-(piperazin-1-yl)-11H-indeno[1,2-c]quinolin-11-one]
IC50 ([1]; Homo sapiens): 15.2 ± 1.5 µM
IC50 ([2]; Homo sapiens): 10.1 ± 1.2 µM
IC50 [3]: > 30 µM
IC50 [4, 7]: 25.3 ± 15.5 µM
melting point: 150 to 151 °C
IC50 [5]: > 30 µM
IC50 ([6]; Homo sapiens): 12.5 ± 1 µM

COc1ccc2c(c1)C(=O)c1c-2c(N2CCN(C(=O)CCNCCNCCO)CC2)nc2ccccc12 [Compound 5eee]
IC50 [1]: 10.6 ± 1.2 µM
IC50 [2]: 16 ± 0.9 µM
IC50 [3]: > 30 µM
IC50 ([4]; SKHep1 cells): 11.2 ± 0.9 µM
IC50 [5]: > 30 µM
IC50 [6]: 15 ± 3.5 µM

COc1ccc2c(c1)C(=O)c1c-2c(N2CCN(C(=O)CCNCCN3CCNCC3)CC2)nc2ccccc12 [Compound 5iii]
IC50 [1]: > 30 µM
IC50 [2]: 13.4 ± 1.3 µM
IC50 [3]: > 30 µM
IC50 ([4]; SKHep1 cells): 11.5 ± 5.6 µM
IC50 [5]: > 30 µM
IC50 [6]: > 30 µM

COc1ccc2c(c1)C(=O)c1c-2c(N2CCN(C(=O)CCNCCO)CC2)nc2ccccc12 [Compound 5aaa]
IC50 [1]: 3.1 ± 1.2 µM
IC50 [2]: 3.7 ± 0.5 µM
IC50 [3]: 9.1 ± 1.6 µM
IC50 ([4]; SKHep1 cells): 4.5 ± 1.1 µM
IC50 [5]: 7.1 ± 0.9 µM
IC50 [6]: 2 ± 1.4 µM
